SMILES strings stand for the structures.

The species entered for experiment [1] is Canis familiaris. In words: Intrinsic activity was measured as maximum contraction relative to 5-HT in dog saphenous vein. The class given is functional, Canis lupus familiaris.
The nature of experiment [2]: (§1) Intrinsic activity was measured as maximum contraction relative to 5-HT in rabbit basilar artery. The class given is functional, Oryctolagus cuniculus.
The species entered for experiment [3] is Canis familiaris. In words: In vitro evaluation in the dog saphenous vein for maximal response. The format is functional, organism-based. As to conditions: Canis lupus familiaris.
For experiment [4], the species on record is Oryctolagus cuniculus. The experiment is described as §1. The format is functional.
The species named for experiment [5] is Oryctolagus cuniculus. Put plainly: In vitro evaluation in rabbit basilar artery for maximal response. The format is functional, organism-based.
Experiment [6] addresses Serotonin 2 (5-HT2) receptor (Rattus norvegicus) (UniProt P30994+P08909+P14842). As to conditions: Cortex.
The target of experiment [7] is T1, 5-hydroxytryptamine receptor 2C (Rattus norvegicus) (UniProt P08909).
T1 sequence (whole entry): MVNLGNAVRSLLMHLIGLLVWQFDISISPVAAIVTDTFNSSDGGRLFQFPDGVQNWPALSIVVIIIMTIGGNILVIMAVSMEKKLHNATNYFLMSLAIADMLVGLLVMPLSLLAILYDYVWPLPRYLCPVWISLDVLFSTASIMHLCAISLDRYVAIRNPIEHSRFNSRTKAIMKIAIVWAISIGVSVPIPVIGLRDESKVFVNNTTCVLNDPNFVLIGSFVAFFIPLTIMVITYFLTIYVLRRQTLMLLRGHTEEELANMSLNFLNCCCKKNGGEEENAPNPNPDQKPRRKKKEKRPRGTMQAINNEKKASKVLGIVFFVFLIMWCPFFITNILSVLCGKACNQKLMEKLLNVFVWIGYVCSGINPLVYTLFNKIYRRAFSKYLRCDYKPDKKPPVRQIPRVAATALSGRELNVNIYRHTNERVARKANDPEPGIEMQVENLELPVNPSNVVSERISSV

For experiment [8], the target named is Serotonin 2 (5-HT2) receptor (Homo sapiens) (UniProt P41595+P28223+P28335).
Chain of Serotonin 2 (5-HT2) receptor (Homo sapiens) (P28223 whole entry, looked up): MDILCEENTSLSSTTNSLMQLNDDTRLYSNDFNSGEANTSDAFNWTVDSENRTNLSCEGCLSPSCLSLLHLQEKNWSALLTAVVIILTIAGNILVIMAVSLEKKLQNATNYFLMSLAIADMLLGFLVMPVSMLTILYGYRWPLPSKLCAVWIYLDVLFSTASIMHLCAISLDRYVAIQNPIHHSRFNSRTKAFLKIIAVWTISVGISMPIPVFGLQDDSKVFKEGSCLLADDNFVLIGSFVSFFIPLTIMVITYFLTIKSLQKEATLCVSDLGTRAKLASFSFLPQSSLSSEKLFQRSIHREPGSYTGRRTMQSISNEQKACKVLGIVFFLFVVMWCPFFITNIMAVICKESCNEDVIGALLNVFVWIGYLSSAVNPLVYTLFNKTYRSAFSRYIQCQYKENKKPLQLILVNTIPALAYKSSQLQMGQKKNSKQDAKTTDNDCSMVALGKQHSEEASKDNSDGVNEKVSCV
Chain of Serotonin 2 (5-HT2) receptor (Homo sapiens) (P28335 whole entry, looked up): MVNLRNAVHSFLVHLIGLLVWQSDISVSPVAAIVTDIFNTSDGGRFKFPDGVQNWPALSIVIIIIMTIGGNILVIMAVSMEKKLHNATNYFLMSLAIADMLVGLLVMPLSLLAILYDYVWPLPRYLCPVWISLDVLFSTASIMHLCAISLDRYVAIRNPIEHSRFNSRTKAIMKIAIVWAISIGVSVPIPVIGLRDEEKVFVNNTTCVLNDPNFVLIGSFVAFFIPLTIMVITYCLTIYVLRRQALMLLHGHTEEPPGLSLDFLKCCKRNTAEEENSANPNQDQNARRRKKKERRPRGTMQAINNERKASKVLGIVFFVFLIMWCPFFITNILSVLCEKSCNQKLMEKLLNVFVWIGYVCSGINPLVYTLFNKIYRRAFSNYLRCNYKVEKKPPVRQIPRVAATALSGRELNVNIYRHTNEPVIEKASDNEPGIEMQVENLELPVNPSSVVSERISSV
Chain of Serotonin 2 (5-HT2) receptor (Homo sapiens) (P41595 whole entry, looked up): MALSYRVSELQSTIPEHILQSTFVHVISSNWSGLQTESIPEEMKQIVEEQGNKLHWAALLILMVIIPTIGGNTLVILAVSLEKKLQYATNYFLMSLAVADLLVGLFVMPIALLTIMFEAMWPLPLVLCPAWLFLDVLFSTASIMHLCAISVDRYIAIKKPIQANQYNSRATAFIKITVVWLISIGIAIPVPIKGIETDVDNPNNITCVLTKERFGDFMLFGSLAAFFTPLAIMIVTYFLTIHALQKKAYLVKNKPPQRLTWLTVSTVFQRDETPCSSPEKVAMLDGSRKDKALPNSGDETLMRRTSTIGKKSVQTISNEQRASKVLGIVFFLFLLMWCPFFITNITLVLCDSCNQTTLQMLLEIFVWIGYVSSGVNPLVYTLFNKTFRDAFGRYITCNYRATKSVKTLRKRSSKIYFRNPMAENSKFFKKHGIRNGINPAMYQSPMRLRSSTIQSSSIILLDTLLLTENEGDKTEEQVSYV

Chain of Serotonin 2 (5-HT2) receptor (Rattus norvegicus) (P14842 whole entry, looked up, one chain of several): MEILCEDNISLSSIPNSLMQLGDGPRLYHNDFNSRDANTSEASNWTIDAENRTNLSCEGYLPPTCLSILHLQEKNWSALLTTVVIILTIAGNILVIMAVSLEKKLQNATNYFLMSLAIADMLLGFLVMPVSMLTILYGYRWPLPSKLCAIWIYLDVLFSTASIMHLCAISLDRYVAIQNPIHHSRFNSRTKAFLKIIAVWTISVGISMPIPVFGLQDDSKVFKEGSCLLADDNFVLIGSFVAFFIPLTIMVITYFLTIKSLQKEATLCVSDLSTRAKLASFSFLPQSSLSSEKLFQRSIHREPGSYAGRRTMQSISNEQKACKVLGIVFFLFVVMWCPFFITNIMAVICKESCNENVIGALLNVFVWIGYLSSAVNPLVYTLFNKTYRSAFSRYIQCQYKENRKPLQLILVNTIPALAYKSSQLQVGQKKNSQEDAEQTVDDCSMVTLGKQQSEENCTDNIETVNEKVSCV
Chain of Serotonin 2 (5-HT2) receptor (Rattus norvegicus) (P30994 whole entry, looked up, one chain of several): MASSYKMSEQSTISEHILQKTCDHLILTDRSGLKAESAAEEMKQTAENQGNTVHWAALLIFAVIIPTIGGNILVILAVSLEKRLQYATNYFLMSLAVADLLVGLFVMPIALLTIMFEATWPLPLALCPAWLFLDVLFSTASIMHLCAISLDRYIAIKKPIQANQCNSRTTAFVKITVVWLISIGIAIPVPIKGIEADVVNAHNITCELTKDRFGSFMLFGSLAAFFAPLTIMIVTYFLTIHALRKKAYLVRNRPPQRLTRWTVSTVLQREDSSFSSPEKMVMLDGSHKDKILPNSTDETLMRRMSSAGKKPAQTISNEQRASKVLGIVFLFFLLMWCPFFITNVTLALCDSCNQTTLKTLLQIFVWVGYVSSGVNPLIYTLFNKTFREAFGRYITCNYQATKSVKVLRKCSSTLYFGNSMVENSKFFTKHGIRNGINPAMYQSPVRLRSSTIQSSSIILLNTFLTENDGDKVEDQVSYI

As for `NCCc1c[nH]c2ccc(O)cc12` [SEROTONIN], the IA (in the experiment listed under Canis familiaris [1]; in experiment [2]) was 1 each time.

With `CNS(=O)(=O)Cc1ccc2[nH]cc(CCN(C)C)c2c1`, the values for the EC50 in the experiment listed under Canis familiaris [3] and in the experiment listed under Oryctolagus cuniculus [5] were 400 nM and 2400 nM, respectively. Moreover, the IA in the experiment listed under Canis familiaris [1] is 0.78; in the experiment listed under Oryctolagus cuniculus [4], 0.74. Further, the pKD (commonly the negative decadic logarithm of the KD, by convention in mol/L) in experiment [6] was more than 4.

Take `CCN(CC)C(=O)N[C@H]1C=C2c3cccc4[nH]cc(c34)C[C@H]2N(C)C1` [LISURIDE]: the IA in the experiment listed under Canis familiaris [1] and in the experiment listed under Oryctolagus cuniculus [4] was 0.73 each time.

With `NCCc1c[nH]c2ccc(C(N)=O)cc12`, the figures for the pKD in experiment [7] and in experiment [8] were 6.2 and 4.7, respectively.

Source of the values: ChEMBL document CHEMBL1126726 (J Med Chem, 1993).
